Measured values from patent US20250032580A1, “USE OF ADNF POLYPEPTIDES IN THERAPY” (RAMOT AT TEL-AVIV UNIVERSITY LTD., priority 2021, published 2025).

Tests used:
[1] = tested on: Tyr mice; experiment: CatWalk gait analysis; assay type: in vivo, mouse; set-up: key to NAP efficacy: motor impediments: corrections by NAP treatment (+)
Protocol: Animals—Animals were housed under a 12-hour light/dark cycle, with food and water ad-libitum. Mouse pups were subcutaneously administrated with NAP [having an amino acid sequence NAPVSIPQ (SEQ ID NO: 2), 25 μg NAP/1 ml saline] as described (8, 12). At 21 days of age mice were administered daily intranasal NAP in vehicle solution (“DD”—7.5 mg/ml of NaCl, 1.7 mg/ml of citric acid, 3 mg/ml of disodium phosphate dihydrate, and 0.2 mg/ml of 50% benzalkonium chloride solution) (0.5 μg NAP/5p1 DD) (8, 9, 12, and U.S. Pat. No. 10,912,819 to Gozes). These mice continued to behavioral analysis as described hereinbelow. The noninvasive intranasal route was chosen as these experiments required daily handling and administration. Age (weeks) of mice during behavioral experiments (mean±SEM) was as follows: Catwalk-9.23±0.15, grooming-10±0.15, social approach-10.5±0.12, odor-discrimination-12.12±0.13, hanging-wire-13±0.14, hotplate-13.18±0.13. Group size was determined following previous experiments (12). Pups were randomly allocated to either the NAP or DD group according to sex and genotype. All procedures involving animals were conducted under the supervision and approval of the institutional animal care and use committee of Tel Aviv University and the Israeli Ministry of Health.
Catwalk—Was performed as previously described (12).
CatWalk: Briefly, The CatWalk XT (Noldus Inc. Leesburg, VA) was used to analyze the gait of unforced, moving mice^10 Mice had to cross the runway of the CatWalk XT apparatus in a consistent manner, and a successful run was defined when an animal ran the track without any interruption or hesitation. Every mouse was tested until 3 successful runs were achieved.
Base of support is the average width between either the front paws or the hind paws. Swing (sec) or swing phase is the duration in seconds of no contact of a paw with the glass plate. Swing Speed is the speed (Distance Unit/second) of the paw during Swing. Max Contact Max Intensity is the maximum Intensity at Max Contact of a paw. Intensity ranges from 0 to 255 in arbitrary units. The intensity of a print depends on the degree of contact between a paw and the glass plate and increases with increasing weight. Therefore, Intensity is a measure of weight put on the glass plate.
The Intensity parameter is used to assess the effects of neuropathic pain, including mechanical allodynia. Max Contact Mean Intensity is the mean Intensity of a paw at Max Contact. Print length is the length (horizontal direction) of the complete print. The complete print is the sum of all contacts with the glass plate, as if the animal's paw would have been inked. Print width is the width (vertical direction) of the complete paw. Print area is the surface area of the complete print. Max Intensity is the maximum Intensity of the complete paw. Mean intensity is the mean Intensity of the complete paw.

[2] = tested on: adult compromised patients; conditions: cited from earlier work
[3] = tested on: BTBR mouse; experiment: Social recognition test; assay type: in vivo; conditions: BTBR idiopathic autism mouse, FIG. 14
[4] = tested on: Tyr mice; experiment: Behavioral assessments (odor discrimination and others); assay type: in vivo, mouse; set-up: key to NAP efficacy: cognitive impairments, behavioral deficits: corrections by NAP treatment (+)
Protocol: Animals—Animals were housed under a 12-hour light/dark cycle, with food and water ad-libitum. Mouse pups were subcutaneously administrated with NAP [having an amino acid sequence NAPVSIPQ (SEQ ID NO: 2), 25 μg NAP/1 ml saline] as described (8, 12). At 21 days of age mice were administered daily intranasal NAP in vehicle solution (“DD”—7.5 mg/ml of NaCl, 1.7 mg/ml of citric acid, 3 mg/ml of disodium phosphate dihydrate, and 0.2 mg/ml of 50% benzalkonium chloride solution) (0.5 μg NAP/5p1 DD) (8, 9, 12, and U.S. Pat. No. 10,912,819 to Gozes). These mice continued to behavioral analysis as described hereinbelow. The noninvasive intranasal route was chosen as these experiments required daily handling and administration. Age (weeks) of mice during behavioral experiments (mean±SEM) was as follows: Catwalk-9.23±0.15, grooming-10±0.15, social approach-10.5±0.12, odor-discrimination-12.12±0.13, hanging-wire-13±0.14, hotplate-13.18±0.13. Group size was determined following previous experiments (12). Pups were randomly allocated to either the NAP or DD group according to sex and genotype. […]
Novel object recognition: Briefly, the open field test was used for the first day of habituation since both tests are conducted in the same arena. […] The time spent sniffing/touching each object was measured using the EthoVision XT video tracking system and software (Noldus Inc. Leesburg, VA). Data were analyzed using the discrimination capacity formula: D2=(b−a)/(a+b), where ‘a’ designated the time of exploration of the familiar object and ‘b’ designated the time of exploration of the novel object.
Social approach: A plexiglas box was divided into three adjacent chambers, each 20 cm (length)×40.5 cm (width)×22 cm (height), separated by two removable doors. […] The next day, each subject mouse was tested in an experiment with three phases, (measured with a simple timer): I and II (5 minutes long), the habituation phases (ensuring no bias), and III (10 minutes long), the experimental phase. […]

SMILES: CC[C@H](C)[C@H](NC(=O)[C@H](CO)NC(=O)[C@@H](NC(=O)[C@@H]1CCCN1C(=O)[C@H](C)NC(=O)[C@@H](N)CC(N)=O)C(C)C)C(=O)N1CCC[C@H]1C(=O)N[C@@H](CCC(N)=O)C(=O)O [NAP, NAPVSIPQ]
- Front base of support ([1]; Tyr mice, males and females): NAP correcting this phenotype in males
- NAP efficacy: motor impediments ([1]; Tyr mouse (gait), first symbol of cell): +/(gait)+
- Gait parameters ([1]; WT mice, data not shown): No major NAP effect
- Intensity parameters (gait) ([1]; female Tyr mice): significant NAP correction
- Swing speed and swing duration ([1]; female Tyr mice): ameliorated by NAP
- Print width ([1]; female Tyr mice, FIG. 1F): significant NAP correction effect
- Print length and area ([1]; male Tyr mice, daily intranasal NAP): significant NAP recovery
- Clinical efficacy ([2]; adult patients): enhancement of cognitive function and functional activities of daily living
- Safety and tolerance ([2]; hundreds of adult compromised patients): proven safety and tolerance
- Effects on social recognition (preference of the mouse rather than the cup) [3]: also observed
- Odor discrimination ([4]; Tyr mice, daily intranasal NAP, data not shown): NAP reversal in females
- NAP efficacy: cognitive impairments, behavioral deficits ([4]; Tyr mouse (odor), first symbol of cell): +(odor)/+(8)
- Behavioral, motor, social and sensory traits ([4]; WT mice, data not shown): varied minor effects
